Measured values: patent US20230226018A1, “APPLICATION OF COMPOUND USING INTRA-CYCLIC PEROXO-BRIDGED SESQUITERPENES AS PARENT NUCLEUS IN METABOLISM-RELATED FATTY LIVER DISEASES” (SHANGHAI JIAO TONG UNIVERSITY, priority 2021, published 2023)

How the values were obtained:
[1] = test system: C57 mice fed with 10% lard and 5% fructose; assay: Liver pathology (HE, Oil red O staining, SAF scoring) in mice on high-fat and high-sugar diet; format: in vivo; conditions: vs high-fat group
Method: (§1) C57 mice were selected and fed with feedstuffs that were added with 10% lard and 5% fructose. After 12 weeks, the mice suffered from liver metabolism disruption, generated insulin resistance, and were stuck in mitochondrial dysfunction in liver cells, thus resulting in a decrease in fatty acid β-oxidation capacity and fat accumulation in the liver, and inflammation and fibrosis were produced. Artemisinin was given at a dosage of 100 mg/kg from the 13th week as a treatment for 12 weeks. At the end of the experiment, the mice were dissected to obtain livers. A part of the livers was subjected to HE staining and Oli red O staining to quantify the liver lipids and conduct a pathological scoring of liver steatosis of the mice based on the steatosis activity fibrosis (SAF) scoring system.

[2] = test system: C57 mice fed with 10% lard and 5% fructose; assay: Serum enzyme detection in mice on high-fat and high-sugar diet; format: in vivo; conditions: artemisinin 100 mg/kg for 12 weeks, vs high-fat diet
Method: as §1, with “system. […] The serum of each group of mice mentioned above was taken and subjected to serum enzyme detection.” for “system.”

[3] = test system: C57 mice fed with 10% lard and 5% fructose; assay: Expression of lipid metabolism-related genes in liver tissue of mice on high-fat and high-sugar diet; format: in vivo; conditions: artemisinin 100 mg/kg for 12 weeks, FIGS. 10A-10I
Method: as §1, with “system. […] A part of the livers of the mice in each group mentioned above was taken, RNA and protein were extracted, and the study of the expression of related genes and proteins was conducted to detect the expression levels of lipid metabolism-related genes in liver tissue.” for “system.”

[4] = test system: C57 mice fed with 10% lard and 5% fructose; assay: Expression of autophagy-related proteins (TOR, LC3) in liver of mice on high-fat and high-sugar diet; format: in vivo; conditions: artemisinin 100 mg/kg for 12 weeks, FIGS. 11A-11G
Method: as §1
A part of the livers of the mice in each group mentioned above was taken, RNA and protein were extracted, and the study of the expression of related genes and proteins was conducted to detect the expression levels of lipid metabolism-related genes in liver tissue.
Target of rapamycin (TOR) is a key protein in the control of autophagy, which can sense various change signals of cells and strengthen or reduce the occurrence level of autophagy.

[5] = test system: HepG2 liver cancer cells; assay: Lipid accumulation (triglyceride content, Nile red lipid droplets) in FFA-treated HepG2 liver cancer cells; format: cell-based, human; conditions: 1 mM/L FFA, 5 μM/L artesunate, 24 h, vs model group
[6] = test system: HepG2 liver cancer cells; assay: qRT-PCR expression of CIDE, AMPK pathway and PPAR pathway genes in FFA-treated HepG2 cells; format: cell-based, human; conditions: 1 mM/L FFA, 5 μM/L artesunate, 24 h
Method: Experimental methods: HepG-2 liver cancer cells with passage times less than 20 times were selected and inoculated into a 12-well plate at a density of 3×10^5 cells/mL. Drug treatment was performed after inoculating for 24 h, and the cells were divided into 3 groups with 4 wells in each group. A complete medium containing 1% bovine serum albumin (BSA) was used as the control group. A complete medium containing 1% BSA and 1 mM/L FFA was used as the high-fat model group. A complete medium containing 1% BSA, 1 mM/L FFA, and 5 μM/L, artesunate was used as the artesunate group. After being treated for 24 h, the cells were collected, and RNA was extracted and reverse-transcribed into cDNA. Quantitative real-time PCR (qRT-PCR) was used to detect the expression of CIDE series genes. AMPK signaling pathway-related genes, and PPAR signaling pathway-related genes in the three groups of cells.

[7] = vs model group, p<0.001, FIG. 7

| Compound | score of lobular inflammation (SAF scoring system) ([1]; artemisinin 100 mg/kg for 12 weeks, FIG. 9C) | score of ballooning of liver cells (SAF scoring system) ([1]; artemisinin 100 mg/kg for 12 weeks, FIG. 9D) | liver steatosis (fat blebs, Oil red O staining areas) ([1]; artemisinin 100 mg/kg from the 13th week for 12 weeks, FIG. 8) | ALT level in the serum ([2]; FIG. 9E) | AST level in the serum ([2]; FIG. 9F) | upstream gene expression levels of genes related to lipid synthesis in liver [3] | mitochondrial dysfunction and autophagy (mitophagy) level in liver [4] | content of triglyceride (TG) in HepG2 liver cancer cells ([5]; FIG. 1) | number of large lipid droplets (Nile red staining) ([5]; FIGS. 2A-2B) | expression of SREBP1c-ACC/SCD1/FAS genes related to intracellular fatty acid synthesis ([6]; FIG. 5) | mRNA level of PPARct. [6, 7] | mRNA level of PPARy [6, 7] | mRNA level of AMPKα (PRKAA1) ([6]; vs model group, p<0.01, FIG. 4) | mRNA level of carnitine palmitoyl transferase 1 (CPT-1) ([6]; vs model group, p<0.01, FIG. 6) | mRNA expression of Cide-a gene ([6]; vs model group, FIG. 3) | mRNA expression of Cide-b gene ([6]; vs model group, FIG. 3) |
| --- | --- | --- | --- | --- | --- | --- | --- | --- | --- | --- | --- | --- | --- | --- | --- | --- |
| C[C@@H]1CC[C@H]2[C@@H](C)C(=O)O[C@@H]3O[C@@]4(C)CC[C@@H]1[C@]32OO4 [artemisinin] | significantly reduced | significantly reduced | significantly improve liver steatosis | significantly reduce the elevation | significantly reduce the elevation | inhibited | effectively resist the mitochondrial dysfunction and the decrease in the autophagy level | – | – | – | – | – | – | – | – | – |
| C[C@H]1[C@H](OC(=O)CCC(=O)O)O[C@@H]2O[C@@]3(C)CC[C@H]4[C@H](C)CC[C@@H]1[C@@]24OO3 [artesunate] | – | – | – | – | – | – | – | significantly decreased | decreased | reduce the expression | significantly up-regulated | significantly up-regulated | significantly up-regulated | significantly up-regulated | significantly lower | significantly lower |
